In US20170066779A1, “SOLID FORMS OF A FLAVIVIRIDAE VIRUS INHIBITOR COMPOUND AND SALTS THEREOF” (IDENIX Pharmaceuticals LLC, priority 2014, published 2017):

Legend:
[1] = Gravimetric vapor sorption (GVS); assay type: physicochemical; conditions: for XRPD post GVS / XRPD after GVS: solid form after the sorption cycle
Experimental: Sorption isotherms were obtained using a SMS DVS Intrinsic moisture sorption analyzer, controlled by DVS Intrinsic Control software v1.0.0.30. The sample temperature was maintained at 25° C. by the instrument controls. The humidity was controlled by mixing streams of dry and wet nitrogen, with a total flow rate of 200 mL/min. The relative humidity (RH) was measured by a calibrated Rotronic probe (dynamic range of 1.0-100% RH), located near the sample. The weight change, (mass relaxation) of the sample as a function of % RH was constantly monitored by the microbalance (accuracy ±0.005 mg). Typically 5-20 mg of sample was placed in a tared mesh stainless steel basket under ambient conditions. The sample was loaded and unloaded at 40% RH and 25° C. (typical room conditions). A moisture sorption isotherm was performed as outlined below (2 scans giving 1 complete cycle). The standard isotherm was performed at 25° C. at 10% RH intervals over a 0-90% RH range. Data analysis was undertaken in Microsoft Excel using DVS Analysis Suite v6.0.0.7.

[2] = Solid-state storage stability at elevated temperature and humidity (XRPD); assay type: physicochemical
Experimental: One hundred milligrams of the amorphous form of the compound of Formula I was solubilized into 5 volumes of ethyl acetate or acetone under constant stirring at respectively 70° C. or 50° C. (experiment performed in duplicate). […] Systems were then allowed to equilibrate at initial temperature for 1 hour (crashing out reported in all cases). Some samples were then filtered at respectively 70° C. or 50° C. Other samples were cooled to 0° C. at 0.1° C./min. Suspensions were observed after 1 hour slurrying at 0° C. Ten volumes of solvent were added to each sample and the systems were allowed to equilibrate at 0° C. for 1 hour. One aliquot of each condition was filtered under reduced pressure, dried for 16 hours at 70° C. and 3 mbar and characterized by XRPD, ^1H-NMR and HPLC (Table 6).
Ca. 0.5 g of the compound of Formula I was weighed in a 10 mL vial, 15 vol. of IPAc were added. The suspension was heated to 50° C., 2.5 eq of acid added (from a stock solution 1 M in THF) and then cooled to 5° C. at 0.1° C. min^−1. Suspension was filtered with vacuum and allowed to dry under these conditions for 4 h. Samples were analyzed by XRPD to check the conversion and then they were dried under vacuum at 30° C. for 20 h. […] The suspension was heated to 50° C. and additional 0.5 eq of acid added from a stock solution 1 M in THF. The suspension was then cooled to 5° C. at 0.1° C. min^−1. The solid was filtered with vacuum and allowed to dry under these conditions for 4 h. The solid was analyzed by XRPD to check the conversion and then it was dried under vacuum at 30° C. for 20 h.

[3] = system: Caco-2 cell model; experiment: Permeability in the 3-day Caco-2 cell model; assay type: in vitro ADME
[4] = Thermodynamic aqueous solubility; assay type: physicochemical; conditions: for thermodynamic aqueous solubility, rank order: solubility decreases in the printed order
Experimental: The suspension was equilibrated at 25° C. for 24 hours then the pH was measured. The suspension was then filtered through a glass fibre C filter. The filtrate was then diluted by an appropriate factor, e.g. 101. Quantitation was by HPLC with reference to a standard solution of approximately 0.25 mg/mL in DMSO. Different volumes of the standard, diluted and undiluted sample solutions were injected.

[5] = Absolute oral bioavailability in rats; conditions: rat, in vivo, dosed as a solution in 0.5% TPGS/37.5% PEG200/60% PBS, 10 mg/kg PO and 2 mg/kg IV
Experimental: The desired route of administration for the compound of Formula I is oral. The absolute oral bioavailability in rats was determined to be approximately 4-8% when dosed as a solution in 0.5% TPGS/37.5% PEG200/60% PBS. The doses were 10 mg/kg PO and 2 mg/kg IV.

[6] = Half-life in human hepatocytes; assay type: in vitro ADME
Experimental: Furthermore, the half-life in human hepatocytes was in the mid/long range of >8 hours for the compound of Formula I. Consequently, rapid hepatic clearance is unlikely to contribute to low oral bioavailability.

[7] = target: T1, P-gp (Homo sapiens, UniProt P08183); experiment: P-gp substrate assessment (BA/AB transport ratio, with or without cyclosporine A); assay type: in vitro ADME
T1 construct: endogenous in cells; host or cells: Caco-2
T1 sequence (P08183 whole entry): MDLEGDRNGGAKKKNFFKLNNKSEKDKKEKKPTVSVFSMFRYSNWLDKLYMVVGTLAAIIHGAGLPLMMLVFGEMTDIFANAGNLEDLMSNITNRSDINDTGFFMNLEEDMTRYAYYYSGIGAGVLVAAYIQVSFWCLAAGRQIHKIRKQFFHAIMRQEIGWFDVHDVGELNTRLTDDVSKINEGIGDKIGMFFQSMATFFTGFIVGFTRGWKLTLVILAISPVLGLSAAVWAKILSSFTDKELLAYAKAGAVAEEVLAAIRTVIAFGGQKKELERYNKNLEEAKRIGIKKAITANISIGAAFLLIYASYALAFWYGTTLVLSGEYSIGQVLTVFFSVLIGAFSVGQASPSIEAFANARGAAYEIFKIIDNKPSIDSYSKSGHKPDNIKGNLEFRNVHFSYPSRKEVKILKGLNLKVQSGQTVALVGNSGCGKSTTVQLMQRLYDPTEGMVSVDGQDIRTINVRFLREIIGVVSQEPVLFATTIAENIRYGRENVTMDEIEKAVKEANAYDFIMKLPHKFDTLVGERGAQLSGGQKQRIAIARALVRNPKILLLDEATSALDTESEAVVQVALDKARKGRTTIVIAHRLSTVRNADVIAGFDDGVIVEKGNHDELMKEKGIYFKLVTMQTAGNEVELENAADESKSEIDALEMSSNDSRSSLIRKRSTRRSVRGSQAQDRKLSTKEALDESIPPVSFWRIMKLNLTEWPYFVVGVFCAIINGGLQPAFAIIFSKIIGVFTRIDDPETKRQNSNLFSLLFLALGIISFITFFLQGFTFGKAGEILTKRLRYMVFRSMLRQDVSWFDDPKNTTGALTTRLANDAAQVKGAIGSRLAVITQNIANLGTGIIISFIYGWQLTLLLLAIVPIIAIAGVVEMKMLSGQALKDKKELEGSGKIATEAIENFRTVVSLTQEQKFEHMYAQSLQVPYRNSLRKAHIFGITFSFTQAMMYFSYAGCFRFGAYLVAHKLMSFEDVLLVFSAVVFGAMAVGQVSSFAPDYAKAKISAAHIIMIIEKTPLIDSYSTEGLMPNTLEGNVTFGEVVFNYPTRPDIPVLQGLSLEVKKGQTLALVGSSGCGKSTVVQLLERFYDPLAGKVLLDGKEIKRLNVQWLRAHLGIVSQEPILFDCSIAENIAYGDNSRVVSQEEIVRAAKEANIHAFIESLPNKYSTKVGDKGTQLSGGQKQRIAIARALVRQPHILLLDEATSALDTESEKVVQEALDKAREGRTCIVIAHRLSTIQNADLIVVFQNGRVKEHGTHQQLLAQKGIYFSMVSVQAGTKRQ

For `COC(=O)N[C@H](C(=O)N1CCC[C@H]1c1nc2ccc(-c3csc4c(-c5ccc(-c6cnc([C@@H]7CCCN7C(=O)[C@H](NC(=O)OC)c7ccccc7)[nH]6)cc5)csc34)cc2[nH]1)C(C)C` [Form A, methyl N-{(1R)-2-[(2S)-2-{5-[4-(6-{2-[(2S)-1-{(2S)-2-[(methoxycarbonyl)amino]-3-methylbutanoyl}pyrrolidin-2-yl]-3H-benzimidazol-5-yl}thieno[3,2-b]thiophen-3-yl)phenyl]-1H-imidazol-2-yl}pyrrolidin-1-yl]-2-oxo-1-phenylethyl}carbamate], which “GVS weight uptake at 90% RH” value ([1]; 25° C., 90% RH) is on record?
The value was 1.16 wt %.

And the “XRPD post GVS / XRPD after GVS” value [1]?
Its value is “Form A”.

And the “Stability 25° C./92% RH (XRPD after 11 days)” value ([2]; 25° C./92% RH, 11 days)?
The value was “Form A”.

What about the “Stability 40° C./75% RH (XRPD after 11 days)” value ([2]; 40° C./75% RH, 11 days) of the same molecule?
Its value is “Form A”.

And the “effect of GVS analysis and storage at elevated temperature and humidity on the crystals” value ([2]; eleven days, recrystallized 100 mg scale samples)?
Its value is “remained as Form A”.

For `COC(=O)N[C@H](C(=O)N1CCC[C@H]1c1nc2ccc(-c3csc4c(-c5ccc(-c6cnc([C@@H]7CCCN7C(=O)[C@H](NC(=O)OC)c7ccccc7)[nH]6)cc5)csc34)cc2[nH]1)C(C)C` [compound of Formula I, methyl N-{(1R)-2-[(2S)-2-{5-[4-(6-{2-[(2S)-1-{(2S)-2-[(methoxycarbonyl)amino]-3-methylbutanoyl}pyrrolidin-2-yl]-3H-benzimidazol-5-yl}thieno[3,2-b]thiophen-3-yl)phenyl]-1H-imidazol-2-yl}pyrrolidin-1-yl]-2-oxo-1-phenylethyl}carbamate], which permeability [3] is on record?
Its permeability is “low permeability”.

And the BCS classification ([4]; based on poor aqueous solubility and low Caco-2 permeability)?
The BCS classification was “BCS Class IV”.

What about the solubility ([4]; poor aqueous solubility, basis of BCS classification) of the same molecule?
The solubility was less than 500 µg/mL.

What about the “thermodynamic aqueous solubility, rank order” value [4] of the same molecule?
Its value is “HCl>H2SO4>tosylate=free base form”.

What about the bioavailability [5] of the same molecule?
The bioavailability was 4 to 8%.

And the half-life [6]?
The half-life was greater than 8 h.

What about the “effect from addition of P-gp inhibitor cyclosporine A” value [7] of the same molecule?
Its value is “absence of effect”.

And the P-gp substrate ([7]; deduced from BA/AB transport ratio and cyclosporine A addition)?
Its P-gp substrate is “not a P-gp substrate”.

What about the efflux ratio ([7]; human, Caco-2) of the same molecule?
Its efflux ratio is less than 1.

For H2SO4, which “GVS wt uptake between 0-90% RH” value [1] is on record?
The value was “RH 25.5% wt”.

And the “GVS wt uptake between 40-75% RH” value ([1]; 40-75% RH)?
Its value is 6.12% wt uptake.

What about the “GVS wt uptake between 75-90% RH” value ([1]; 75-90% RH) of the same molecule?
The value was “RH 14.5% wt”.

What about the “XRPD post GVS / XRPD after GVS” value [1] of the same molecule?
Its value is “Amorphous”.

And the “Stability 25° C./92% RH (XRPD after 7 days)” value ([2]; 25° C./92% RH)?
The value was “Amorphous”.

And the “Stability 40° C./75% RH (XRPD after 7 days)” value ([2]; 40° C./75% RH)?
The value was “Amorphous”.

Which “GVS wt uptake between 0-90% RH” value [1] does the source give for Tosylate here?
Its value is 9.5% wt uptake.

And the “XRPD post GVS / XRPD after GVS” value [1]?
The value was “Amorphous”.

And the “pH of the equilibrated suspension in the solubility determination” value ([4]; measured after equilibration at 25° C. for 24 hours)?
The value was 1.52.

What about the “Aqueous Solubility” value ([4]; scaled-up amorphous salts, final pH printed in the same cell) of the same molecule?
The value was 0.00 mgmL^−1.

What about the “thermodynamic aqueous solubility, rank order” value [4] of the same molecule?
The value was “HCl>H2SO4>tosylate=free base form”.

And the “Stability 25° C./92% RH (XRPD after 7 days)” value ([2]; 25° C./92% RH)?
Its value is “Amorphous”.

And the “Stability 40° C./75% RH (XRPD after 7 days)” value ([2]; 40° C./75% RH)?
Its value is “Amorphous”.
